From ChEMBL document CHEMBL5584354, “Impact of Conjugation of the Reactive Oxygen Species (ROS)-Generating Catalytic Moiety with Membrane-Active Antimicrobial Peptoids: Promoting Multitarget Mechanism and Enhancing Selectivity” (J Med Chem, 2024)
Converted amounts (≈) assume the structure as drawn. The source made the active and inactive calls. The calls are words filed in the database; no cut-off is given here. Non-standard residues stand in square brackets, D forms with d. Residues, ends and D or L forms follow the SMILES beside them. Gly(N(CH2)2(3-indolyl)) = O=C(O)CNCCc1c[nH]c2ccccc12; Nspe = C[C@H](NCC(=O)O)c1ccccc1; Nlys = NCCCCNCC(=O)O

Key:
Escherichia coli [1] = assay: Antibacterial activity against Escherichia coli K1 infected in female ICR mouse model of septic shock assessed as reduction in AST level in serum at 5 mg/kg, ip pretreated for 1 hr followed by bacteria addition and further treated with 3 doses of compound every 4 hrs relative to control; assay type: functional; design: scale not given: the % may be the effect or the level left; details: time 9 hrs
[2] = Cytotoxicity against mouse RAW264.7 cells assessed as cell viability at 10 uM incubated for 24 hrs by […] relative to control; assay type: toxicity, cell-based; details: read-out: Activity
Escherichia coli [3] = assay: Antibacterial activity against Escherichia coli K1 infected in female ICR mouse model of septic shock assessed as reduction in IL-1beta level in serum at 5 mg/kg, ip pretreated for 1 hr followed by bacteria addition and further treated with 3 doses of compound every 4 hrs by ELISA relative to control; assay type: functional; design: scale not given: the % may be the effect or the level left; details: time 9 hrs
Erythrocyte = assay: Hemolytic activity in male Sprague-Dawley rat erythrocytes assessed as concentration required for 10% hemolysis incubated for 1 hr by absorbance based method; assay type: toxicity, cell-based
Escherichia coli [4] = assay: Antibacterial activity against Escherichia coli K1 infected in female ICR mouse model of septic shock assessed as reduction in bacterial load in liver at 5 mg/kg, ip pretreated for 1 hr followed by bacteria addition and further treated with 3 doses of compound every 4 hrs; assay type: functional, organism-based; details: time 9.0 hrs
Escherichia coli [5] = assay: Antibacterial activity against Escherichia coli K1 infected in female ICR mouse model of septic shock assessed as reduction in IL-6 level in serum at 5 mg/kg, ip pretreated for 1 hr followed by bacteria addition and further treated with 3 doses of compound every 4 hrs by ELISA relative to control; assay type: functional; design: scale not given: the % may be the effect or the level left; details: time 9 hrs
Escherichia coli [6] = assay: Antibacterial activity against carbapenem-resistant Escherichia coli NMS11035 harboring extended-spectrum beta-lactamase assessed as inhibition of bacterial growth incubated for 24 hrs by broth dilution method; assay type: functional
Cell membrane = assay: Disruption of inner membrane in Escherichia coli ATCC 25922 assessed as increase in absorbance incubated for 1 hr by ONPG assay; assay type: cell membranes; details: dose 0-25 µM
Escherichia coli [7] = assay: Antibacterial activity against Escherichia coli K1 infected in female ICR mouse model of septic shock assessed as reduction in lung edema at 5 mg/kg, ip pretreated for 1 hr followed by bacteria addition and further treated with 3 doses of compound every 4 hrs by H and E staining based light microscopic analysis; assay type: functional, organism-based; details: time 9.0 hrs
[8] = Toxicity in female ICR mouse assessed as effect on AST level in serum at 5 mg/kg, ip administered four doses for 12 hrs and measured 24 hrs post last dose; assay type: organism-based; details: in vivo, 36 h
Escherichia coli [9] = assay: Antibacterial activity against Escherichia coli K1 infected in female ICR mouse model of septic shock assessed as creatinine level in serum at 5 mg/kg, ip pretreated for 1 hr followed by bacteria addition and further treated with 3 doses of compound every 4 hrs (reference value: 57.3%); assay type: functional; details: time 9 hrs
RAW264.7 [10] = assay: Antiinflammatory activity in LPS-stimulated mouse RAW264.7 cells assessed as reduction in nitrite production at 10 uM incubated for 16 hrs by ELISA relative to control; assay type: functional; design: scale not given: the % may be the effect or the level left
Escherichia coli [11] = assay: Antibacterial activity against Escherichia coli K1 infected in female ICR mouse model of septic shock assessed as increase in animal survival at 5 mg/kg, ip pretreated for 1 hr followed by bacteria addition and further treated with 3 doses of compound every 4 hrs and measured every hour for 36 hrs and every 6 hrs for 96 hrs; assay type: functional
Klebsiella pneumoniae = assay: Antibacterial activity against carbapenem-resistant Klebsiella pneumoniae NMS118 harboring extended-spectrum beta-lactamase assessed as inhibition of bacterial growth incubated for 24 hrs by broth dilution method; assay type: functional
Escherichia coli [12] = assay: Induction of lipid peroxidation in Escherichia coli ATCC 25922 assessed as increase in MDA level at 10 uM incubated for 2 hrs by TBARS assay; assay type: functional, organism-based
Escherichia coli [13] = assay: Antibacterial activity against Escherichia coli K1 infected in female ICR mouse model of septic shock assessed as reduction in endotoxin level at 5 mg/kg, ip pretreated for 1 hr followed by bacteria addition and further treated with 3 doses of compound every 4 hrs relative to control; assay type: functional; design: scale not given: the % may be the effect or the level left; details: time 9 hrs
Escherichia coli [14] = assay: Antibacterial activity against Escherichia coli K1 infected in female ICR mouse model of septic shock assessed as reduction in ALT level in serum at 5 mg/kg, ip pretreated for 1 hr followed by bacteria addition and further treated with 3 doses of compound every 4 hrs relative to control; assay type: functional; design: scale not given: the % may be the effect or the level left; details: time 9 hrs
[15] = Toxicity in female ICR mouse assessed as effect on blood urea nitrogen level at 5 mg/kg, ip administered four doses for 12 hrs and measured 24 hrs post last dose; assay type: organism-based; details: in vivo, 36 h
Lipopolysaccharide (LPS) = assay: Binding affinity to Escherichia coli O111:B4 LPS at 0 to 25 uM BODIPY-TR-cadaverine substitution assay; assay type: subcellular; details: dose 0-25 µM
Escherichia coli [16] = assay: Induction of lipid peroxidation in Escherichia coli ATCC 25922 at 12.5 uM incubated for 1 hrs by BODIPY 581/591 C11 dye based flow cytometry analysis; assay type: functional, organism-based
HEK293 = assay: Cytotoxicity against HEK293 cells assessed as cell killing incubated for 24 hrs by MTS assay; assay type: toxicity, cell-based; details: human, hek293, 24 h
L929 = assay: Cytotoxicity against mouse L929 cells assessed as reduction in cell viability at 3.1 to 25 uM incubated for 24 hrs by WST-8 assay; assay type: toxicity, cell-based; details: l929, 24 h, dose 3.1-25 µM
[17] = Toxicity in female ICR mouse assessed as effect on creatinine level in serum at 5 mg/kg, ip administered four doses for 12 hrs and measured 24 hrs post last dose; assay type: organism-based; details: in vivo, 36 h
[18] = Cytotoxicity against mouse RAW264.7 cells assessed as cell viability at 20 uM incubated for 24 hrs by […] relative to control; assay type: toxicity, cell-based; details: read-out: Activity
Escherichia coli [19] = assay: Antibacterial activity against colistin-resistant Escherichia coli NMS12 harboring extended-spectrum beta-lactamase assessed as inhibition of bacterial growth incubated for 24 hrs by broth dilution method; assay type: functional
RAW264.7 [20] = assay: Cytotoxicity against mouse RAW264.7 cells assessed as cell killing incubated for 24 hrs by MTS assay; assay type: toxicity, cell-based; details: raw264.7, 24 h
MRC5 = assay: Cytotoxicity against human MRC5 cells assessed as cell killing incubated for 24 hrs by MTS assay; assay type: toxicity, cell-based; details: mrc5, 24 h
[21] = Toxicity in female ICR mouse assessed as lymphocyte infiltration in kidney at 5 mg/kg, ip administered four doses for 12 hrs and measured 24 hrs post last dose by H and E staining based light microscopic analysis; assay type: organism-based; details: in vivo, 36 h
RAW264.7 [22] = assay: Antiinflammatory activity in LPS-stimulated mouse RAW264.7 cells assessed as reduction in IL-6 production at 10 uM incubated for 16 hrs by ELISA relative to control; assay type: functional; design: scale not given: the % may be the effect or the level left

In the case of `C[C@@H](c1ccccc1)N(CC(=O)N(CCCCN)CC(=O)N(CCc1c[nH]c2ccccc12)CC(=O)N(CCc1c[nH]c2ccccc12)CC(N)=O)C(=O)CN(CCCCN)C(=O)CN(CCCCN)C(=O)CN(C(=O)CN(C(=O)CN(CCCCN)C(=O)CN(C(=O)CN(C(=O)CN(CCCCN)C(=O)[C@H](Cc1c[nH]cn1)NC(=O)CNC(=O)CN)[C@@H](C)c1ccccc1)[C@@H](C)c1ccccc1)[C@@H](C)c1ccccc1)[C@@H](C)c1ccccc1` (H-GGH[Nlys][Nspe][Nspe][Nlys][Nspe][Nspe][Nlys][Nlys][Nspe][Nlys][Gly(N(CH2)2(3-indolyl))][Gly(N(CH2)2(3-indolyl))]-NH2), the Activity (Escherichia coli [1]) was 32.7%, the viability at 24 h, 10 µM [2] was 94.5% and the Activity (Escherichia coli [3]) was 48.3%. For the same compound, the HC10 (Erythrocyte) was over 100 µM, the Activity (Escherichia coli [4]) was “Active” and the Activity (Escherichia coli [5]) was 42.8%. The MIC (Escherichia coli [6]) was 12.5 µM (≈ 26.4 µg/mL), the Activity (Cell membrane) was “Dose-Dependent Effect” and the Activity (Escherichia coli [7]) was “Active”. For the same compound, the Activity [8] was “Non-Toxic”, the Activity (Escherichia coli [9]) was 32.8% and the Activity (RAW264.7 [10]) was 80.9%. The survival at 5 mg/kg (Escherichia coli [11]) was 60%, the MIC (Klebsiella pneumoniae) was over 25 µM and the Activity (Escherichia coli [12]) was “Active”. For the same compound, the Activity (Escherichia coli [13]) was 44.3%, the Activity (Escherichia coli [14]) was 51.1% and the Activity [15] was “Non-Toxic”. The Activity (Lipopolysaccharide (LPS)) was “Active”, the Activity (Escherichia coli [16]) was “Active” and the LC50 (HEK293) was 39.5 µM. For the same compound, the Activity (L929) was “Non-Toxic”, the Activity [17] was “Non-Toxic” and the viability at 24 h, 20 µM [18] was 74.1%. For the same compound, the MIC (Escherichia coli [19]) was 12.5 µM (≈ 26.4 µg/mL), the LC50 (RAW264.7 [20]) was 39.6 µM and the LC50 (MRC5) was 187 µM. The Activity [21] was “Non-Toxic” and the Activity (RAW264.7 [22]) was 99.3%.
